One may read the IC50 as the concentration that inhibits the measured activity by half.

The results in this text go back to patent publication US8138168B1 (Takeda Pharmaceutical Company Limited, priority 2007, dated 2012).

The assay deals with T1, Recombinant human renin (Homo sapiens, UniProt P00797).
T1 construct: isolate the active form (residues 67-406); made in house; host or cells: FreeStyle 293-F cells (transient expression of pcDNA3.1(+)/hREN)
T1 sequence (P00797 67-406): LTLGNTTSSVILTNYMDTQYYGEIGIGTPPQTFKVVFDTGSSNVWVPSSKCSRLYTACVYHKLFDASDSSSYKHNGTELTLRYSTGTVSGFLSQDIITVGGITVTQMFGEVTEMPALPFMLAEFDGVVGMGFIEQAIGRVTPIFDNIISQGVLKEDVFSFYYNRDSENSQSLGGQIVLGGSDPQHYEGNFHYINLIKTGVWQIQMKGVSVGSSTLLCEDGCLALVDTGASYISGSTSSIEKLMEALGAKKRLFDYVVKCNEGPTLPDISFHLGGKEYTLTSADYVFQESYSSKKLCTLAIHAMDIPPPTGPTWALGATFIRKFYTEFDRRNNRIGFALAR
Put plainly: In vitro enzymatic activity assay of renin inhibitors (fluorogenic peptide substrate). The format is biochemical. The settings on record: read-out: IC50 of Exemplified Compounds Against Renin. A digest of the protocol:
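Recombinant human renin (3 nM final) pre-incubated 10 min at 37 °C with compounds in pH 7.4 Hepes/EDTA/DTT/0.1 mg/mL BSA/Brij35 buffer (optionally plus 2% BSA), 5% DMSO final; fluorogenic QXL520/HiLyteFluo488 peptide substrate added.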
For `COCCCn1c([C@@H]2CCCN(C(=O)C[C@H](N)CNC(=O)Nc3ccccc3C(C)(C)C)C2)nc2ccccc21` [Compound 302, 1-((S)-2-amino-4-((R)-3-(1-(3-methoxypropyl)-1H-benzo[d]imidazol-2-yl)piperidin-1-yl)-4-oxobutyl)-3-(2-tert-butylphenyl)urea], the IC50 fell in the range of 100 to 1000 nM.

For the compound `COCCCn1c([C@@H]2CCCN(C(=O)C[C@H](N)CNC(=O)c3cccc(-c4noc(C)n4)c3)C2)nc2ccccc21` [Compound 303, N-((S)-2-amino-4-((R)-3-(1-(3-methoxypropyl)-1H-benzo[d]imidazol-2-yl)piperidin-1-yl)-4-oxobuty)-3-(5-methyl-1,2,4-oxadiazol-3-yl)benzamide], the concentration for half-maximal inhibition (IC50) lay in the range of 100 to 1000 nM.

In the case of `COCCCn1c([C@@H]2CCCN(C(=O)C[C@H](N)CNC(=O)c3ccc(-c4ccc(F)cc4)o3)C2)nc2ccccc21` [Compound 304, N-((S)-2-amino-4-((R)-3-(1-(3-methoxypropyl)-1H-benzo[d]imidazol-2-yl)piperidin-1-yl)-4-oxobutyl)-5-(4-fluorophenyl)furan-2-carboxamide], the IC50 was in the range of 100 to 1000 nM.

In the case of `COCCCn1c([C@@H]2CCCN(C(=O)C[C@H](N)CNS(=O)(=O)c3ccc(Cl)c(Cl)c3)C2)nc2ccccc21` [Compound 305, N-((S)-2-amino-4-((R)-3-(1-(3-methoxypropyl)-1H-benzo[d]imidazol-2-yl)piperidin-1-yl)-4-oxobutyl)-3,4-dichlorobenzenesulfonamide], the IC50 was in the range of 100 to 1000 nM.

Take `COCCCn1c([C@@H]2CCCN(C(=O)C[C@H](N)CNS(=O)(=O)c3ccccc3Cl)C2)nc2ccccc21` [Compound 306, N-((S)-2-amino-4-((R)-3-(1-(3-methoxypropyl)-1H-benzo[d]imidazol-2-yl)piperidin-1-yl)-4-oxobutyl)-2-chlorobenzenesulfonamide]: the concentration for half-maximal inhibition (IC50) lay in the range of 100 to 1000 nM.

Take `CCCSc1ncccc1C(=O)NC[C@@H](N)CC(=O)N1CCC[C@@H](c2nc3ccccc3n2CCCOC)C1` [Compound 307, N-((S)-2-amino-4-((R)-3-(1-(3-methoxypropyl)-1H-benzo[d]imidazol-2-yl)piperidin-1-yl)-4-oxobutyl)-2-(propylthio)nicotinamide]: the concentration for half-maximal inhibition (IC50) was in the range of 100 to 1000 nM.

`COCCCn1c([C@@H]2CCCN(C(=O)C[C@H](N)CNC(=O)c3ccc4c(c3)OCCO4)C2)nc2ccccc21` [Compound 308, N-((S)-2-amino-4-((R)-3-(1-(3-methoxypropyl)-1H-benzo[d]imidazol-2-yl)piperidin-1-yl)-4-oxobutyl)-2,3-dihydrobenzo[b][1,4]dioxine-6-carboxamide]: the concentration for half-maximal inhibition (IC50) was 100 to 1000 nM.

Consider `COCCCn1c([C@@H]2CCCN(C(=O)C[C@H](N)CNC(=O)c3ccc(Cl)cc3)C2)nc2ccccc21` [Compound 309, N-((S)-2-amino-4-((R)-3-(1-(3-methoxypropyl)-1H-benzo[d]imidazol-2-yl)piperidin-1-yl)-4-oxobutyl)-4-chlorobenzamide], for which the IC50 lay within 100 to 1000 nM.

Regarding `COCCCn1c([C@@H]2CCCN(C(=O)C[C@H](N)CNC(=O)c3cccc(OC)c3)C2)nc2ccccc21` [Compound 310, N-((S)-2-amino-4-((R)-3-(1-(3-methoxypropyl)-1H-benzo[d]imidazol-2-yl)piperidin-1-yl)-4-oxobutyl)-3-methoxybenzamide], the concentration for half-maximal inhibition (IC50) was 100 to 1000 nM.

As for `COCCCn1c([C@@H]2CCCN(C(=O)C[C@H](N)CNC(=O)c3cccc4ccccc34)C2)nc2ccccc21` [Compound 311, N-((S)-2-amino-4-((R)-3-(1-(3-methoxypropyl)-1H-benzo[d]imidazol-2-yl)piperidin-1-yl)-4-oxobutyl)-1-naphthamide], the concentration for half-maximal inhibition (IC50) is 100 to 1000 nM.

For the compound `COCCCn1c([C@@H]2CCCN(C(=O)C[C@H](N)CNS(=O)(=O)C(C)C)C2)nc2ccccc21` [Compound 312, N-((S)-2-amino-4-((R)-3-(1-(3-methoxypropyl)-1H-benzo[d]imidazol-2-yl)piperidin-1-yl)-4-oxobutyl)propane-2-sulfonamide], the IC50 fell in the range of 100 to 1000 nM.
